In patent US4130647A, “Methods for treating congestive heart failure and ischemic heart disease” (priority 1977, dated 1978):
“And” between values parts separate entries of the source, which are not always exact repeats. Equal entries are not always repeated.

Assays:
adrenergic = assay: Adrenergic blocking activity of trimazosin
Excerpt: This observation might have important clinical implications since other vasodilators may be contraindicated in patients with compensated ischemic heart disease who may develop tachycardia and increased myocardial oxygen requirements [Sonnenblick, et al., N. Engl. J. Med., 285, 688 (1971)] in response to vasodilators.

clinical = details: human, po
[1] = tested on: patients with essential hypertension; details: cited from earlier work
norepinephrine = details: in vivo; cited from earlier work
[2] = tested on: patients with chronic left sided congestive heart failure; assay: Treadmill exercise duration until marked dyspnea, trimazosin (Example 3); format: in vivo, human; details: for improvement in exercise duration vs. placebo: p<0.025
Excerpt: Sixteen men between 41 and 66 years of age with chronic left sided congestive heart failure were subjects. Twelve patients had coronary heart disease with an old healed myocardial infarction, one patient had alcoholic cardiomyopathy, and three patients had idiopathic cardiomyopathy as the cause of their chronic heart failure. All 16 patients had cardiomegaly on physical examination and on their chest roentgenogram, a left ventricular third heart sound heard by auscultation, and evidence of pulmonary venous congestion on their chest roentgenogram. Their baseline standing blood pressures ranged between 114 and 150 mm. Hg. systolic and 72 and 100 mm. Hg. diastolic.
The patients received digitalis and diuretic therapy for 6 to 48 months. Their dose of digitalis and diuretic was not changed during this study. Except for potassium chloride, no other medications were taken by any of the 16 patients during this study. All patients signed informed consent forms.
(§1) After baseline measurements, all 16 patients received one capsule of single-blind placebo three times daily for two weeks. The patients then received in a double-blind, randomized study trimazosin or placebo for six weeks. Eight patients received one placebo capsule three times daily for weeks one and two, two placebo capsules three times daily for weeks three and four, and three placebo capsules three times daily for weeks five and six of the double-blind period. Seven patients received one 50 mg. trimazosin capsule three times daily for weeks one and two, two 50 mg. trimazosin capsules three times daily for weeks three and four, and three 50 mg. trimazosin capsules three times daily for weeks five and six of the double-blind period. One patient (patient number five on trimazosin) received one 50 mg. trimazosin capsule three times daily for 32 days. Their trimazosin dose was not increased after two weeks of this dose because their standing systolic blood pressure was 104/70 mm. Hg.
Two practice treadmill tests were performed by all patients prior to the baseline period. The patients performed a multi-stage uninterrupted treadmill exercise test until the onset of marked dyspnea in the baseline period, and approximately two hours after their morning dose of medication after two weeks of single-blind placebo, after three weeks of double-blindmedication, and after six weeks of double-blind medication. The patients exercised at a treadmill speed of 1.7 m.p.h. and a treadmill grade of 0% for the first 3 min., a treadmill speed of 1.7 m.p.h. and a treadmill grade of 10% for the next 3 min., at a treadmill speed of 2.5 m.p.h. and a treadmill grade of 12% for the third 3 min. period, and then at a treadmill speed of 3.4 m.p.h. and a treadmill grade of 14%.
The data listed in Tables 1-4 were analyzed using Student's t test for independent means. Fisher's exact test was used to analyze the data on improvement of symptoms and the data on changes in roentgenographic evidence of pulmonary venous congestion.

[3] = tested on: patients with chronic left sided congestive heart failure; assay: Improvement of symptoms and roentgenographic pulmonary venous congestion, trimazosin (Example 3); format: in vivo, human
Excerpt: as §1
The patients were seen by one of the investigators, questioned for symptoms, and given a physical examination in the baseline period, at the end of two weeks of single-blind placebo, and at the end of weeks one, two, three, four, five, and six on double-blind medication. […]
The data listed in Tables 1-4 were analyzed using Student's t test for independent means. […]

[4] = tested on: patients with congestive heart failure; assay: Dose-finding of oral trimazosin in congestive heart failure (Example 2); format: in vivo, human; details: for Change in Heart Rate at Peak / Change in Systolic Pressure at Peak / Time to Peak Effect: individual patients
Procedure: Studies were performed in male patients with clinical and radiographic evidence of congestive heart failure due to ischemic or primary cardiomyopathy. To be eligible for the study patients had to have supine systolic blood pressure of at least 100 mm. Hg. and a supine resting cardiac index below 2.5 L/min./m^2, as measured by the non-invasive carbon dioxide rebreathing method [Franciosa, et al., J. Lab. Clin. Med., 88, 662 (1976) and Franciosa, et al., Circulation, 55, 449 (1977)]. Six patients met these criteria and were selected for the study.
After obtaining written informed consent, patients were entered into a 2 day dose finding period during which single daily doses of trimazosin were given and blood pressure and heart rate monitored for 4 hours. On day one 100 mg. was given; if no response or side effects occurred, 200 mg. was given the next day. For purposes of this study a response was defined as a fall in supine blood pressure to a level equal to 0.2 × control systolic pressure +76 mm. Hg. This formula was arbitrarily chosen so that patients with control systolic blood pressure as low as 100 mm. Hg. would be included, and their pressures could be reduced to 96 mm. Hg. Upon completion to the dose finding period, no trimazosin was given for the next 24 hours to allow for washout of previous doses. After this, hemodynamic studies were performed employing the predetermined doses; if 200 mg. of trimazosin was ineffective, 300 mg. was given for hemodynamic studies.

[5] = single oral doses of 50 to 150 mg.
[6] = 200 mg. trimazosin oral, mean of 4, ns
[7] = 200 mg. trimazosin, patient no. 4

half-life (clinical; in vivo): 3 to 6 h
Tmax (clinical; plasma): 1 to 2 h
SMILES: COc1cc2c(N)nc(N3CCN(C(=O)OCC(C)(C)O)CC3)nc2c(OC)c1OC [trimazosin, 2-hydroxy-2-methylpropyl 4-(4-amino-6,7,8-trimethoxy-2-quinazolinyl)-1-piperazinecarboxylate]
adrenergic blocking activity (adrenergic): does not possess adrenergic blocking activity
Heart Rate ([1]; hypertensives without heart failure): does not increase heart rate
blood pressure [1, 5]: significantly lower blood pressure
effect on heart rate [1, 5]: No significant effects
effect on plasma renin activity [1, 5]: No significant effects
side effect [1, 5]: Mild transient dizziness
time of peak effect [1, 5]: between one and four hours
time until effect was apparent [1, 5]: ≤ 30 min
digital vascular reactivity to norepinephrine infusion (norepinephrine): decreased
norepinephrine uptake and secretion (norepinephrine): not affected
Double-blind trimazosin (3 weeks) exercise time ([2]; 300 mg. daily (patient 5: 150 mg. daily), individual patients): 180 s and 428 s and 398 s and 280 s and 298 s and 389 s and 476 s and 322 s
Double-blind trimazosin (6 weeks) exercise time ([2]; 450 mg. daily, individual patients): 232 s and 295 s and 406 s and 435 s and 627 s and 527 s and 363 s
Change from average of baseline and placebo exercise times ([2]; 3 weeks, 300 mg. daily (patient 5: 150 mg. daily), individual patients): +110%
Double-blind trimazosin (3 weeks) exercise time, mean ([2]; 3 weeks, mean, baseline/placebo average 255.5): 346.4 s
improvement in exercise duration vs. placebo ([2]; 3 weeks): significantly greater
Change from average of baseline and placebo exercise times ([2]; 6 weeks, 450 mg. daily, individual patients): +136% and +122%
Double-blind trimazosin (6 weeks) exercise time, mean ([2]; 6 weeks, 450 mg. daily, mean): 412.1 s
improvement in exercise duration vs. placebo ([2]; 6 weeks): significantly greater
disappearance of pulmonary venous congestion on chest roentgenogram ([3]; vs. none of eight on placebo, p=0.038): Four of the eight patients
good or excellent improvement in symptoms ([3]; vs. one of eight on placebo, p=0.020): Six of the eight patients
Change in Heart Rate at Peak ([4]; 100 mg. trimazosin oral): -4 beats/min. and -2 beats/min. and -15 beats/min. and -10 beats/min.
Change in Systolic Pressure at Peak ([4]; 100 mg. trimazosin oral): -4 mm.Hg. and -22 mm.Hg. and -8 mm.Hg. and -16 mm.Hg. and -9 mm.Hg.
Time to Peak Effect ([4]; 100 mg. trimazosin oral): 240 min and 120 min and 180 min and 90 min
Time to Peak Effect, mean ([4]; 100 mg. trimazosin oral, mean of 6): 155.0 min
Change in Systolic Pressure at Peak, mean ([4]; 100 mg. trimazosin oral, mean of 6, P <0.02): -10.5 mm.Hg.
Change in Heart Rate at Peak, mean ([4]; 100 mg. trimazosin oral, mean of 6, P <0.05): -6.5 beats/min.
desired hypotensive response ([4]; 100 mg. trimazosin, of six patients): 2 patients (nos. 5 and 6)
Change in Heart Rate at Peak ([4]; 200 mg. trimazosin oral): 15 beats/min. and -3 beats/min. and 2 beats/min. and -1 beats/min.
Change in Systolic Pressure at Peak ([4]; 200 mg. trimazosin oral): -21 mm.Hg. and -20 mm.Hg. and -8 mm.Hg. and -1 mm.Hg.
Time to Peak Effect ([4]; 200 mg. trimazosin oral): 240 min and 90 min and 210 min and 180 min
Time to Peak Effect, mean ([4]; 200 mg. trimazosin oral, mean of 4): 180.0 min
Change in Heart Rate at Peak, mean [4, 6]: 3.3 beats/min.
Change in Systolic Pressure at Peak, mean [4, 6]: -12.5 mm.Hg.
systolic pressure lowered to the desired goal ([4]; 200 mg. trimazosin, of four patients): 2 patients (nos. 1 and 2)
desired reduction in systolic pressure and side effects ([4]; 200 mg. trimazosin, patient no. 3): neither the desired reduction in systolic pressure nor side effects
side effect [4, 7]: orthostatic light-headedness
supine systolic pressure [4, 7]: essentially no fall
standing systolic pressure ([4]; 200 mg. trimazosin, patient no. 4, fell from 103): 91 mm. Hg.
